This assay relates to ochratoxin A aptamer, 0 complementary bp (no tail) (DNA, aptamer) GATCGGGTGTGGGTGGCGTAAAGGGAGCATCGGACA
Description: electrochemical aptamer-based sensor, square wave voltammetry (KDM). As to conditions: 1X PBS pH 7.4, room temperature.

In general, KD refers to the constant that tells how readily two partners part at equilibrium. Low readings indicate a tighter complex, high ones a looser complex.

Regarding `CCCC[C@@H](C)[C@@H](OC(=O)C[C@@H](CC(=O)O)C(=O)O)[C@H](C[C@@H](C)C[C@H](O)CCCC[C@@H](O)C[C@H](O)[C@H](C)N)OC(=O)C[C@@H](CC(=O)O)C(=O)O`, the binding result (tested at 10 µM only, no KDM signal) is listed as “no”.

Compound `C[C@@H]1Cc2c(Cl)cc(C(=O)N[C@@H](Cc3ccccc3)C(=O)O)c(O)c2C(=O)O1` came in with a KD (1X PBS (Na+, K+; concentrations not given), undiluted iced coffee rows (ions not given), flowing, KDM of 240 Hz and 20 Hz) of 6.5 ± 0.6 µM.

Source of the values: paper PMC6016998 (2018).
